Data: ChEMBL document CHEMBL3301472, “MMV Malaria Box HIV and cytotoxicity screening”

Assays:
[1] = MMV: MTT Cytotoxicity Assay Day 7 pi of Assay #6 (compound washed out Day 1 pi), U87-CD4-CCR5 cells, % cell death @ 5mM compound; format: toxicity, cell-based; settings: human, u87-cd4-ccr5, 5000 µM
[2] = system: Human immunodeficiency virus 1; assay: MMV: HIV CCR5-tropic env JRFL pseudovirus assay produces luciferase signal in lieu of replicating viral particles Day 3 pi, U87-CD4-CCR5, % inhibition at 5 mM compound; format: functional; parameters: dose or concentration left out as unconfirmed; settings: Human immunodeficiency virus 1, JR-FL, U87/CD4/CCR5, 72 h
[3] = MMV: MTT Cytotoxicity Assay Day 7 pi of Assay #7 (compound washed out Day 1 pi), U87-CD4-CXCR4 cells, % cell death @ 5mM compound; format: toxicity, cell-based; settings: human, u87-cd4-cxcr4, 5000 µM
[4] = MMV: MTT Cytotoxicity Assay Day 7 pi of Assay #10 (NO washout), U87-CD4-CCR5 cells, % cell death @ 5mM compound; format: toxicity, cell-based; settings: human, u87-cd4-ccr5, 5000 µM
[5] = MMV: MTT Cytotoxicity Assay Day 3 pi, U87-CD4-CXCR4 cells, % cell death @ 5mM compound; format: toxicity, cell-based; settings: human, u87-cd4-cxcr4, 5000 µM
[6] = MMV: MTT Cytotoxicity Assay Day 7 pi of Assay #11 (NO washout), U87-CD4-CXCR4 cells, % cell death @ 5mM compound; format: toxicity, cell-based; settings: human, u87-cd4-cxcr4, 5000 µM
[7] = MMV: MTT Cytotoxicity Assay Day 3 pi, U87-CD4-CCR5 cells, % cell death @ 5mM compound; format: toxicity, cell-based; settings: human, u87-cd4-ccr5, 5000 µM
[8] = system: Human immunodeficiency virus 1; assay: MMV: HIV CXCR4-tropic env HxB2 pseudovirus assay produces luciferase signal in lieu of replicating viral particles Day 3 pi, U87-CD4-CXCR4, % inhibition at 5 mM compound; format: functional; parameters: dose or concentration left out as unconfirmed; settings: Human immunodeficiency virus 1, HxB2, U87.CD4.CXCR4, 72 h
[9] = system: Human immunodeficiency virus 1; assay: MMV: HIV JRFL CCR5-tropic replication-competent virus, virus & compound washed out Day 1 pi, P24 ELISA Day 7 pi, U87-CD4-CCR5, % inhibition at 5 mM compound; format: functional; parameters: dose or concentration left out as unconfirmed; settings: Human immunodeficiency virus 1, JR-FL
[10] = system: Human immunodeficiency virus 1; assay: MMV: HIV CXCR4-tropic env NL4-3 pseudovirus assay produces luciferase signal in lieu of replicating viral particles Day 3 pi, U87-CD4-CXCR4, % inhibition at 5 mM compound; format: functional; parameters: dose or concentration left out as unconfirmed; settings: Human immunodeficiency virus 1, NL4-3, U87.CD4.CXCR4, 72 h
[11] = system: Human immunodeficiency virus 1; assay: MMV: HIV NL4-3 CXCR4-tropic replication-competent virus, NO washout, P24 ELISA Day 7 pi, U87-CD4-CXCR4, % inhibition at 5 mM compound; format: functional; parameters: dose or concentration left out as unconfirmed; settings: Human immunodeficiency virus 1, NL4-3, U87.CD4.CXCR4, 168 h
[12] = system: Human immunodeficiency virus 1; assay: MMV: HIV NL4-3 CXCR4-tropic replication-competent virus, virus & compound washed out Day 1 pi, P24 ELISA Day 7 pi, U87-CD4-CXCR4, % inhibition at 5 mM compound; format: functional; parameters: dose or concentration left out as unconfirmed; settings: Human immunodeficiency virus 1, NL4-3, U87.CD4.CXCR4

Compound | % Cell Death [1] | inhibition [2] [%] | % Cell Death [3] | % Cell Death [4] | % Cell Death [5] | % Cell Death [6] | % Cell Death [7] | inhibition [8] [%] | inhibition [9] [%] | inhibition [10] [%] | inhibition [11] [%] | inhibition [12] [%]
COc1cccc(C2(C)Nc3ccccc3-c3nc4ccccc4n32)c1 (stereo unspecified) | 37 | 9 | 25 | 35 | 28 | 92 | -22 | – | – | – | – | –
CC(=O)Nc1nnc(SCc2c(C)cc(C(C)(C)C)cc2C)s1 | 3 | 8 | 10 | 3 | 27 | 6 | 14 | – | – | – | – | –
COc1ccc(-c2nonc2NC(=O)c2cccc(Cl)c2)cc1OC | 13 | -2 | 49 | 100 | 45 | 97 | 61 | – | – | – | – | –
Cc1ccc(OCCCCCCNCCO)c(C)c1 | 30 | -2 | -10 | 15 | 28 | -10 | -3 | – | – | – | – | –
COc1ccc(C(=O)Nc2nonc2-c2ccc(OC)c(OC)c2)cc1Cl | 13 | 5 | 53 | 100 | 47 | 67 | 64 | 9 | 6 | – | – | –
Cc1sc(NC(=O)c2ccco2)c(C(c2cccnc2)N2CCC(Cc3ccccc3)CC2)c1C (stereo unspecified) | 81 | 8 | 94 | 107 | 88 | 104 | 110 | – | – | – | – | –
CCN(CC)CCn1c(=N)n(CC(O)c2ccc(Cl)c(Cl)c2)c2ccccc21.Cl (stereo unspecified) | 14 | – | 20 | -29 | 4 | 52 | 18 | – | – | 10 | 0 | –
CC(C)CCNCC(O)Cn1c2ccccc2c2ccccc21.Cl (stereo unspecified) | -10 | – | -6 | -11 | 32 | -6 | 6 | – | – | – | 1 | –
CSC1=NC(=Nc2c(C)cccc2C)C2(CCC(C(C)(C)C)CC2)N1c1ccc(Cl)cc1 (stereo unspecified) | 1 | – | -6 | 12 | 6 | 0 | 3 | – | – | – | 9 | –
O=C1c2ccc3c4c(ccc(c24)C(=O)N1CCCCO)C(=O)N(CCCCO)C3=O | 16 | – | -43 | 61 | 27 | -30 | 39 | – | – | – | 2 | –
COc1ccccc1C(=O)ON=C(N)Cc1cccc2ccccc12 | -17 | – | 42 | 43 | 47 | -11 | 23 | – | – | 1 | 0 | –
Cc1c(C)n(CC(O)CNC2CCCCC2C)c2ccccc12 (stereo unspecified) | -11 | – | -17 | -14 | 18 | -68 | -17 | – | – | – | 7 | –
O=C(NC1CCN(Cc2ccccc2)CC1)c1cc(-c2cccnc2)nc2ccc(Cl)cc12 | 11 | 8 | -10 | 43 | 34 | 40 | -9 | 8 | – | – | – | –
COc1ccc(C2Sc3ccccc3N=C3C2=C(O)c2ccccc23)cc1 (stereo unspecified) | 7 | – | -32 | 17 | 10 | 3 | 0 | – | 7 | – | – | 7
CCCC(c1nnnn1C1CCCCC1)N1CCN(C(=O)c2ccco2)CC1.Cl (stereo unspecified) | -14 | – | -21 | -2 | 12 | 34 | -3 | – | – | – | 7 | –
CCCn1c(=N)c(C(=O)NC2CCCCC2)cc2c(=O)n3cccc(C)c3nc21 | 0 | – | -17 | 43 | 35 | -51 | 29 | – | – | – | 4 | –
COc1cccc(Cn2c(Oc3ccccc3)nc3c2c(=O)n(C)c(=O)n3C)c1 | 32 | – | 3 | 39 | 15 | 32 | -1 | – | – | – | 9 | –
COc1cc(OC)c(N(C)C(=O)c2cc3c(s2)-c2ccccc2S(=O)(=O)C3)cc1Cl | 22 | – | -18 | -2 | 33 | -30 | 28 | – | – | – | 2 | 7
CCCCCCOC(=O)C1=C(C)NC(=O)NC1c1ccccc1F (stereo unspecified) | -10 | -2 | -33 | 40 | 29 | -34 | 16 | 3 | – | – | – | –
COCCn1c(C)nc2ccccc2c1=O | -8 | – | 11 | 14 | 19 | 32 | 23 | – | 3 | – | – | 2
Cc1ccc(S(=O)(=O)c2c(COC(=O)c3cccc(C)c3)c(-c3ccccc3)nn2C)cc1 | 5 | – | 22 | 16 | 22 | 31 | 27 | – | 5 | – | 7 | –
CC1(c2ccccc2)Nc2ccccc2-c2nc3ccccc3n21 (stereo unspecified) | -21 | – | -19 | 29 | 24 | -43 | 10 | – | – | – | 4 | –
Nc1ccn([C@@H]2O[C@H](CO)[C@@H](O)[C@H]2O)c(=O)n1 [CYTIDINE] | -9 | – | 24 | 26 | 28 | 0 | -30 | – | – | – | 6 | –
Cc1ccccc1OCCSc1nc2ccc(NC(=O)c3ccccc3)cc2s1 | 31 | 10 | 1 | 106 | 36 | 100 | 96 | – | – | – | – | –
OC1CCCCC1C1(NC(=S)Nc2ccccc2)CCCCC1 (stereo unspecified) | -5 | – | 29 | 4 | 11 | -25 | 23 | – | 7 | – | 8 | –
O=C(O)C(=O)O.Oc1ccccc1CN1CCN(C(c2ccccc2)c2ccccc2)CC1 | 2 | – | 28 | 22 | 12 | 56 | 4 | – | – | – | 0 | –
Nc1ccc(-c2nc3cc(Oc4ccc(Oc5ccc6[nH]c(-c7ccc(N)cc7)nc6c5)cc4)ccc3[nH]2)cc1 | 12 | 4 | 68 | 113 | 51 | 21 | 21 | – | – | – | – | –
COc1ccc(NC(=O)C2c3ccccc3C(=O)N(CC(C)C)C2c2cccs2)cc1 (stereo unspecified) | -1 | – | -38 | -9 | 13 | -27 | 16 | – | 3 | – | – | 6
CCCc1cc(O)c2c3c(c(=O)oc2c1)CN(C)CC3 | -8 | – | 57 | 45 | 44 | 40 | 22 | – | – | 4 | 6 | –
